Data reported in patent US6599893B2, “Cephalosporin antibiotics and prodrugs thereof” (Essential Therapeutics, Inc., priority 2000, dated 2003).
Values after ≈ are worked out from the molar mass of the structure shown. Read-outs that look alike come from different tables or passages of the source.

Columns and labels:
[1] = Human serum binding estimated from serum effect on MIC (HSB*); assay type: in vitro ADME
Description: An estimate of human serum binding (HSB*) was obtained for some compounds using the MIC values against S. aureus ATCC 29213 determined in growth medium (GM) and in a 1:1 mixture of growth medium and human serum (GM+HS):
HSB*=(MICGM+HS−MICGM)/MICGM 100%

[2] = test system: Enterococcus faecalis ATCC 29212; experiment: Broth microdilution MIC, E. faecalis ATCC 29212; assay type: cell-based; settings: Enterococcus faecalis ATCC 29212; for MIC: ATCC29212, read-out: MIC E. f. 29212
In short: (§1)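 Broth microdilution per NCCLS M7-A3 (1993) guidelines. MIC taken as the lowest compound concentration preventing bacterial growth.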

[3] = test system: Enterococcus faecium ATCC 35667; experiment: Broth microdilution MIC, E. faecium ATCC 35667; assay type: cell-based; settings: Enterococcus faecium ATCC 35667; for MIC: ATCC35667, read-out: MIC E. f. 35667
In short: as §1

[4] = test system: Staphylococcus aureus ATCC 29213 (MSSA); experiment: Broth microdilution MIC, S. aureus ATCC 29213; assay type: cell-based; settings: Staphylococcus aureus ATCC 29213 (MSSA); for MIC: read-out: MIC S. a. 29213
In short: as §1

[5] = test system: Staphylococcus aureus Smith (MSSA); experiment: Broth microdilution MIC, S. aureus Smith; assay type: cell-based; settings: Staphylococcus aureus Smith (MSSA); for MIC: read-out: MIC S. a. Smith
In short: as §1

[6] = test system: Staphylococcus aureus 76 (MRSA, β-lactamase producing); experiment: Broth microdilution MIC, S. aureus 76; assay type: cell-based; settings: Staphylococcus aureus 76 (MRSA, β-lactamase producing); for MIC: read-out: MIC S. a. 76
In short: as §1

[7] = Human serum binding by ultrafiltration; assay type: in vitro ADME
Protocol: Binding of several representative compounds of this invention in pooled human serum was determined using ultrafiltration. Compounds were incubated in serum for 10 minutes at 37° C. in a shaking water bath. Serum ultrafiltrate was accomplished by centrifugation (Amicon Centrifree) for 20 minutes at 25° C. Compound content in the ultrafiltrate was quantified by HPLC. An ultrafilrate obtained by following the same procedure with no added compound was used as a standard.

[8] = test system: Staphylococcus aureus COL (MRSA, non-β-lactamase producing); experiment: Broth microdilution MIC, S. aureus COL; assay type: cell-based; settings: Staphylococcus aureus COL (MRSA, non-β-lactamase producing); for MIC: read-out: MIC S. a. COL
In short: as §1

S. aureus strain Smith = experiment: Experimental infection of mice, ED50; assay type: in vivo, Swiss-Webster mice; settings: 50% efficacious dose, S. aureus Smith, mice challenged intraperitoneally, compound subcutaneously at 0 and 2 h, total dose, 72 h survival
Protocol: Staphylococcus aureus strain Smith (ATCC 13709, penicillin-susceptible) or strain 76 (methicillin-resistant) was cultured overnight at 37° C. in brain-heart infusion broth (BHIB). The following morning, a portion of the culture was transferred to fresh BHIB and incubated for an additional 4-5 hours at 37° C. The cells were harvested by centrifugation, washed twice with PBS, and adjusted to the desired inoculum amount. The cell suspension was mixed with an equal volume of sterile 14% hog-gastric mucin (Comber K. R.; Osborne C. D.; Sutherland R.: Comparative effects of amoxicillin and ampicillin in the treatment of experimental mouse infections. Antimicrobial Agents and Chemotherapy 7(2):179-185, 1975). The inoculum was kept in an ice bath until used (preferably in less than one hour).
Male Swiss-Webster mice were challenged intraperitoneally with 0.5 mL of a bacterial suspension of S. aureus strain Smith (LD50). Test compounds were administered subcutaneously in 0.1 mL volumes immediately after inoculation and 2 hours later. […] The total dose associated with 50% survival (ED50) was determined using the probit method (Pasiello, A. P., J. M. Essigmann, and G. N. Wogan.: Rapid and accurate determination of median lethal dose (LD50) and its error with a small computer. J Toxicol. Environ. Health. 3:797-809, 1977).

[9] = MIC against S. aureus ATCC 29213 in growth medium vs 1:1 growth medium and human serum
[10] = pooled human serum, ultrafiltration, 10 minutes at 37° C.

| Compound | HSB*, human serum binding calculated using serum effect on MIC [1, 9] | MIC [2] | MIC [3] | MIC [4] | MIC [5] | MIC [6] | HSB, human serum binding [7, 10] | MIC [8] | HSB*, human serum binding calculated using serum effect on MIC [1] | MIC E. f. 29212 [2] | MIC E. f. 35667 [3] | MIC S. a. 29213 [4] | MIC S. a. Smith [5] | MIC S. a. 76 [6] | HSB, human serum binding [7] | MIC S. a. COL [8] | ED50, mg/kg (95% C.I.) (S. aureus strain Smith) |
| --- | --- | --- | --- | --- | --- | --- | --- | --- | --- | --- | --- | --- | --- | --- | --- | --- | --- |
| Nc1nc(C(=NO)C(=O)N[C@@H]2C(=O)N3C(C(=O)O)=C(Sc4nnc[nH]4)CSC23)c(Cl)s1 (stereo partly drawn) [Compound 40, (7R)-7-[2-(2-Amino-5-chlorothiazol-4-yl)-2-hydroxyimino-acetylamino]-8-oxo-3-(4H-[1,2,4]triazol-3-ylsulfanyl)-5-thia-1-aza-bicyclo[4.2.0]oct-2-ene-2-carboxylic acid] | 88% | 1 µg/mL (≈ 1.99 µM) | 4 µg/mL (≈ 7.95 µM) | 0.25 µg/mL (≈ 0.497 µM) | 0.5 µg/mL (≈ 0.994 µM) | 8 µg/mL (≈ 15.9 µM) | 92% | 8 µg/mL (≈ 15.9 µM) |  |  |  |  |  |  |  |  |  |
| Nc1nnc(SC2=C(C(=O)O)N3C(=O)[C@@H](NC(=O)C(=NO)c4nc(N)sc4Cl)C3SC2)s1 (stereo partly drawn) [Compound 36, (7R)-7-[2-(2-amino-5-chlorothiazol-4-yl)-2-hydroxyiminoacetylamino]-3-(5-amino-[1,3,4]thiadiazol-2-ylsulfanyl)-8-oxo-5-thia-1-aza-bicyclo[4.2.0]oct-2-ene-2-carboxylic acid] | 94% | 0.25 µg/mL (≈ 0.467 µM) | 1 µg/mL (≈ 1.87 µM) | 0.25 µg/mL (≈ 0.467 µM) | 0.25 µg/mL (≈ 0.467 µM) | 2 µg/mL (≈ 3.74 µM) | 90% | 1 µg/mL (≈ 1.87 µM) |  |  |  |  |  |  |  |  |  |
| Nc1nc(C(=NO)C(=O)N[C@@H]2C(=O)N3C(C(=O)O)=C(Sc4nncs4)CSC23)c(Cl)s1 (stereo partly drawn) [Compound 41, (7R)-7-[2-(2-Amino-5-chlorothiazol-4-yl)-2-hydroxyiminoacetylamino]-8-oxo-3-([1,3,4]thiadiazol-2-ylsulfanyl)-5-thia-1-aza-bicyclo[4.2.0]oct-2-ene-2-carboxylic acid] | 98% | 0.25 µg/mL (≈ 0.481 µM) | 0.5 µg/mL (≈ 0.962 µM) | 0.125 µg/mL (≈ 0.24 µM) | 0.125 µg/mL (≈ 0.24 µM) | 1 µg/mL (≈ 1.92 µM) | 91% | 1 µg/mL (≈ 1.92 µM) |  |  |  |  |  |  |  |  |  |
| NC(=O)CSCc1cnccc1SC1=C(C(=O)O)N2C(=O)[C@@H](NC(=O)/C(=N\O)c3nc(N)sc3Cl)[C@H]2SC1 [Compound 22] |  |  |  |  |  |  |  |  | 88% | 0.5 µg/mL (≈ 0.812 µM) | 1 µg/mL (≈ 1.62 µM) | 0.5 µg/mL (≈ 0.812 µM) | 0.25 µg/mL (≈ 0.406 µM) | 4 µg/mL (≈ 6.49 µM) | 94% | 4 µg/mL (≈ 6.49 µM) | 1.15 (0.7-1.6) mg/kg |
| Nc1nc(C(=NO)C(=O)N[C@@H]2C(=O)N3C(C(=O)O)=C(Sc4nnc(N)s4)CSC23)ns1 (stereo partly drawn) [Compound 37, (7R)-7-[2-(5-Amino-[1,2,4]thiadiazol-3-yl)-2-hydroxyimino-acetylamino]-3-(5-amino-[1,3,4]thiadiazol-2-ylsulfanyl)-8-oxo-5-thia-1-aza-bicyclo[4.2.0]oct-2-ene-2-carboxylic acid] | 50% | 2 µg/mL (≈ 3.99 µM) | 1 µg/mL (≈ 1.99 µM) | 0.25 µg/mL (≈ 0.498 µM) | 0.125 µg/mL (≈ 0.249 µM) | 4 µg/mL (≈ 7.98 µM) | 79% | 4 µg/mL (≈ 7.98 µM) |  |  |  |  |  |  |  |  |  |
| NCCSCc1cnccc1SC1=C(C(=O)O)N2C(=O)[C@@H](NC(=O)/C(=N\O)c3nc(N)sc3Cl)[C@H]2SC1 [RWJ 54428, reference compound] | 67% |  |  |  |  |  | 84% |  |  | 0.06 µg/mL (≈ 0.0996 µM) | 0.25 µg/mL (≈ 0.415 µM) | 0.25 µg/mL (≈ 0.415 µM) | 0.125 µg/mL (≈ 0.208 µM) | 1 µg/mL (≈ 1.66 µM) |  | 0.5 µg/mL (≈ 0.83 µM) | 1.0 (0.7-1.6) mg/kg |
